#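 Test compounds were applied to cells in 96-well plates for 48 hours at 5 doses. TGI denotes the concentration required for complete inhibition of growth.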 Where a SMILES comes first, the peptide text is derived from it. [ ]: non-standard residue; d: D form. The star is where a group is joined. X28 = COC1=CC(=O)N(C(=O)[C@@H](O*)C(C)C)[C@H]1Cc1ccccc1; NMeL = CN[C@@H](CC(C)C)C(=O)O; Hexanoyl = CCCCCC(=O)*
# Columns and labels:
# Experiment in all cases: inhibition of tumour cell growth, NCI panel, 48 h
# [1] = system: BT-549 breast
# [2] = system: HCT-15 colon
# [3] = system: HOP-92 NSCLC
# [4] = system: HT29 colon
# [5] = system: IGROV1 ovarian
# [6] = system: NCI/ADR-RES ovarian
# [7] = system: OVCAR-4 ovarian
# [8] = system: PC-3 prostate
# [9] = system: SF-295 CNS
# [10] = system: SF-539 CNS
Structure (SMILES),TGI [1] [µM],TGI [2] [µM],TGI [3] [µM],TGI [4] [µM],TGI [5] [µM],TGI [6] [µM],TGI [7] [µM],TGI [8] [µM],TGI [9] [µM],TGI [10] [µM]
CC1(C(O)c2ccccc2)CN(C(C)(C)C)C(=O)/C1=C\Sc1ccccc1 (stereo not given),> 100,> 100,21.7,79.8,> 100,> 100,> 100,> 100,> 100,> 100
N#Cc1ccc(Nc2nc3nc[nH]c3c(=O)[nH]2)cc1,> 100,> 100,> 100,> 100,> 100,> 100,> 100,> 100,> 100,> 100
CCOC(=O)c1ccc(N=C/C=C(\Nc2ccc(C(=O)OCC)cc2)c2ccc3ccccc3c2)cc1,42.4,61.1,> 100,49,> 100,70.3,80.3,> 100,> 100,39.2
COc1ccc(OC)c2c1C[C@@H]1C(C#N)N3[C@H](Cc4c(OC)ccc(OC)c4[C@@H]3C)C(=O)N1[C@H]2C (stereo not given in full),4.09,11.2,5.37,30.4,16.8,> 100,16.4,11.7,35.7,5.97
COc1cc(O)c(C(=O)/C=C/c2ccc(O)cc2)cc1Oc1ccc(C(=O)/C=C/c2ccc(O)cc2)c(O)c1,9.19,3.68,24.9,2.66,3.9,9.55,8.37,19.8,10.4,5.51
OC1(c2ccc(Cl)cc2)c2ccccc2C2=Nc3ccccc3CN21 (stereo not given),> 100,> 100,> 100,33.8,> 81.3,98.8,50.6,> 100,> 50.4,> 100
CCCCCC(=O)N[C@H](C(=O)N[C@H](C(=O)N(C)[C@@H](CC(C)C)C(=O)N1CCC[C@H]1C(=O)N1CCC[C@H]1C(=O)O[C@H](C(=O)N1C(=O)C=C(OC)[C@@H]1Cc1ccccc1)C(C)C)C(C)C)C(C)C (Hexanoyl-VV[NMeL]PP-X28),> 100,> 100,> 100,> 100,> 100,> 100,> 100,> 80.5,> 100,> 100
Cc1ccc(Nc2ncnc3sc(SCc4ccccc4)nc23)cc1,> 100,> 100,> 100,> 100,> 100,> 100,> 100,> 100,> 100,> 100
C(=N\NC1=NCCCN1)/c1ccc(-c2cn3cc(/C=N/NC4=NCCCN4)ccc3n2)cc1,> 100,> 100,> 100,> 71.7,> 100,> 100,> 100,> 57.3,> 100,> 100
CCOC(=O)c1c(OCC)[nH]c(=O)c(C(c2ccc(F)cc2)c2c(O)c(C(=O)OCC)c(OCC)[nH]c2=O)c1O,23.6,40.4,18.1,31.7,30.3,> 100,48.3,34.6,49.8,23.5
O=[N+]([O-])c1ccccc1S(=O)(=O)N1CCCc2cc(Cl)ccc21,> 100,> 100,> 100,51.3,> 100,> 89.1,> 100,> 100,> 100,97.2
CC(=O)OCc1ccc(-c2nc(C#N)c(N)o2)o1,> 10,> 10,> 10,> 10,> 10,> 10,> 10,> 10,> 10,> 10
CC(=O)C1=CC=C/C1=N\Nc1ccccc1,27.4,19.2,27.3,11.5,21.3,> 100,20.1,18.7,28.2,8.64
COC(=O)c1ccc(/C=C/C2=CC(=O)C=CC2=O)cc1,26.6,36.8,32.7,48.9,39.1,97.9,42,60.6,78.2,45.6
CCCCN(CCCC)CC(=O)c1ccc2cc(Cl)c3ccccc3c2c1,41.8,53.3,> 100,46,62,> 100,69.1,> 100,> 100,> 100
COc1ccccc1NC(=S)N/N=C(/c1ccccc1)c1ccccn1,23,20.3,15.6,21,17.6,11.3,19.3,16.7,7.17,12
CC1CCN(c2nnc(Cl)cc2C(=O)c2ccccc2)CC1,> 100,> 100,55.5,39.5,> 100,> 100,> 100,> 100,83.9,77.4
Cn1c2ccccc2n2c(=O)c(-c3ccc(O)cc3)nnc12,> 100,> 100,> 100,> 100,> 100,> 100,> 100,> 100,> 100,> 100
C=C1C(=O)OC2C(C)C3C=CC(=O)[C@@]3(C)C(OC(=O)/C(C)=C/C)C1[C@@H]2OC(C)=O (stereo not given in full),0.682,0.782,1.56,1.18,2.05,0.73,2.53,1.87,2.81,0.987

# Reference: PubChem BioAssay (NCI)
